From patent US8722849B2, “Polypeptides” (Novo Nordisk A/S, priority 2011, dated 2014)
Starred links: 1 amine or outer side, 2 acyl side, 3 side chain; linkers in the order of their positions; H or OH if unused. Positions of bridges follow the written chain, without caps; N, C: chain ends. Residues, ends and D or L forms follow the SMILES beside them. Groups on a side chain read outwards from the residue. *: point of attachment. C20 diacid = O=C(O)CCCCCCCCCCCCCCCCCCC(=O)*; C18 diacid = O=C(O)CCCCCCCCCCCCCCCCC(=O)*; γGlu = O=C(O)[C@H](CCC(=O)[*:2])N[*:1]; AEEA = NCCOCCOCC(=O)O

Assay: Assay (III) ThT fibrillation assay for physical stability
Type: physicochemical
Description: ASSAY (III)—ThT Fibrillation Assays for the Assessment of Physical Stability of Protein formulations Low physical stability of a polypeptide may lead to amyloid fibril formation, which is observed as well-ordered, thread-like macromolecular structures in the sample eventually resulting in gel formation. This has traditionally been measured by visual inspection of the sample. However, that kind of measurement is very subjective and depending on the observer. Therefore, the application of a small molecule indicator probe is much more advantageous. Thioflavin T (ThT) is such a probe and has a distinct fluorescence signature when binding to fibrils [Naiki et al. (1989) Anal. Biochem. 177, 244-249; LeVine (1999) Methods. Enzymol. […], 274-284]. The time course for fibril formation can be described by a sigmoidal curve with the following expression [Nielsen et al. (2001) Biochemistry 40, 6036-6046]: [formula] Here, F is the ThT fluorescence at the time t. The constant t0 is the time needed to reach 50% of maximum fluorescence. […] Few of those intermediates nucleate to form a template onto which further intermediates may assembly and the fibrillation proceeds. The lag-time corresponds to the interval in which the critical mass of nucleus is built up and the apparent rate constant is the rate with which the fibril itself is formed. Sample Preparation Samples were prepared freshly before each assay. Each sample composition is described in each example. The pH of the sample was adjusted to the desired value using appropriate amounts of concentrated NaOH and HClO4 or HCl. Thioflavin T was added to the samples from a stock solution in H2O to a final concentration of 1 μM. Sample aliquots of 200 μl were placed in a 96 well microtiter plate (Packard OptiPlate™-96, white polystyrene). Usually, four or eight replica of each sample (corresponding to one test condition) were placed in one column of wells. The plate was sealed with Scotch Pad (Qiagen). Incubation and Fluorescence Measurement Incubation at given temperature, shaking and measurement of the ThT fluorescence emission were done in a Fluoroskan Ascent FL fluorescence platereader or Varioskan platereader (Thermo Labsystems). The temperature was adjusted to 37° C. The orbital shaking was adjusted to 960 rpm with an amplitude of 1 mm in all the presented data. Fluorescence measurement was done using excitation through a 444 nm filter and measurement of emission through a 485 nm filter. Each run was initiated by incubating the plate at the assay temperature for 10 min. The plate was measured every 20 minutes for a desired period of time. Between each measurement, the plate was shaken and heated as described. Data Handling The measurement points were saved in Microsoft Excel format for further processing and curve drawing and fitting was performed using GraphPad Prism. The background emission from ThT in the absence of fibrils was negligible. The data points are typically a mean of four or eight samples and shown with standard deviation error bars. Only data obtained in the same experiment (i.e. samples on the same plate) are presented in the same graph ensuring a relative measure of fibrillation between experiments. The data set may be fitted to Eq. (1). However, since full sigmodial curves in this case are not always achieved during the measurement time, the degree of fibrillation is expressed as ThT fluorescence tabulated as the mean of the samples and shown with the standard deviation at various time points. Measurement of Initial and Final Concentrations The polypeptide concentration in each of the tested formulations were measured both before application in the ThT fibrillation assay (“Initial”) and after completion of the ThT fibrillation (“After ThT assay”). Concentrations were determined by reverse HPLC methods using a pramlintide standard as a reference. Before measurement after completion 150 μl was collected from each of the replica and transferred to an Eppendorf tube. […]

Row | ThT pH 4.0 lag time (h) (ThT fibrillation assay) | ThT pH 4.0 lag time (Table 8) | ThT pH 4.0 lag time (Table 9) | ThT pH 4.0 lag time (ThT fibrillation assay) | Structure (SMILES)
1 | 14 h |  |  |  | CC(C)C[C@H](NC(=O)[C@H](CCCNC(=N)N)NC(=O)[C@H](CCC(N)=O)NC(=O)[C@@H](NC(=O)[C@H](C)NC(=O)[C@@H]1CSSC[C@H](NC(=O)[C@H](Cc2c[nH]cn2)NC(=O)CC[C@H](NC(=O)CCCCCCCCCCCCCCCCCCC(=O)O)C(=O)O)C(=O)N[C@@H](CC(N)=O)C(=O)N[C@@H]([C@@H](C)O)C(=O)N[C@@H](C)C(=O)N[C@@H]([C@@H](C)O)C(=O)N1)[C@@H](C)O)C(=O)N[C@@H](C)C(=O)N[C@@H](CCC(=O)O)C(=O)N[C@@H](Cc1ccccc1)C(=O)N[C@@H](CC(C)C)C(=O)N[C@@H](Cc1c[nH]cn1)C(=O)N[C@@H](CCCNC(=N)N)C(=O)N[C@@H](CO)C(=O)N[C@@H](CO)C(=O)N[C@@H](CC(N)=O)C(=O)N[C@@H](CC(N)=O)C(=O)N[C@@H](Cc1ccccc1)C(=O)NCC(=O)N[C@@H](C)C(=O)N1CCC[C@H]1C(=O)N[C@@H](CC(C)C)C(=O)N[C@@H](CO)C(=O)N[C@@H](CO)C(=O)N[C@H](C(=O)N[C@@H](CC(N)=O)C(=O)N[C@H](C(=O)NCC(=O)N[C@@H](CO)C(=O)N[C@@H](CC(N)=O)C(=O)N[C@H](C(=O)N[C@@H](Cc1ccc(O)cc1)C(N)=O)[C@@H](C)O)C(C)C)[C@@H](C)O [Example 6, N-alpha-[(S)-4-Carboxy-4-(19-carboxynonadecanoylamino)butyryl]-[His1,Glu14,His17,Arg18,Ala25,Pro26,Ser28,Ser29]-pramlintide] ({C20 diacid-γGlu}-HCNTATCATQRLAEFLHRSSNNFGAPLSSTNVGSNTY-NH2; disulfide 2-7 (inferred))
2 | >45 h | >45 h | >45 h | >45 h | CC[C@H](C)[C@H](NC(=O)[C@@H]1CCCN1C(=O)CNC(=O)[C@H](Cc1ccccc1)NC(=O)[C@H](CC(N)=O)NC(=O)[C@H](CCCCNC(=O)COCCOCCNC(=O)COCCOCCNC(=O)CC[C@H](NC(=O)CCCCCCCCCCCCCCCCC(=O)O)C(=O)O)NC(=O)[C@H](CO)NC(=O)[C@H](CO)NC(=O)[C@H](Cc1c[nH]cn1)NC(=O)[C@H](Cc1c[nH]cn1)NC(=O)[C@H](CC(C)C)NC(=O)[C@H](Cc1ccccc1)NC(=O)[C@H](CCC(=O)O)NC(=O)[C@H](C)NC(=O)[C@H](CC(C)C)NC(=O)[C@H](CCCNC(=N)N)NC(=O)[C@H](CCC(N)=O)NC(=O)[C@@H](NC(=O)[C@H](C)NC(=O)[C@@H]1CSSC[C@H](NC(=O)[C@@H](N)CCCCN)C(=O)N[C@@H](CC(N)=O)C(=O)N[C@@H]([C@@H](C)O)C(=O)N[C@@H](C)C(=O)N[C@@H]([C@@H](C)O)C(=O)N1)[C@@H](C)O)C(=O)N[C@@H](CC(C)C)C(=O)N1CCC[C@H]1C(=O)N1CCC[C@H]1C(=O)N[C@H](C(=O)N[C@@H](CC(N)=O)C(=O)N[C@H](C(=O)NCC(=O)N[C@@H](CO)C(=O)N[C@@H](CCC(=O)O)C(=O)N[C@H](C(=O)N[C@@H](Cc1ccc(O)cc1)C(N)=O)[C@@H](C)O)C(C)C)[C@@H](C)O [Example 74, N-epsilon21-[2-(2-{2-[2-(2-{2-[(S)-4-Carboxy-4-(17-carboxyheptadecanoylamino)butyrylamino]ethoxy}ethoxy)acetylamino]ethoxy}ethoxy)acetyl]-[Glu14,His17,Lys21,Glu35]-pramlintide] (H-KCNTATCATQRLAEFLHHSSK([AEEA-AEEA-γGlu-C18 diacid])NFGPILPPTNVGSETY-NH2; disulfide 2-7 (inferred))
3 | 10 h |  |  |  | CC[C@H](C)[C@H](NC(=O)[C@H](CCCCNC(=O)COCCOCCNC(=O)COCCOCCNC(=O)CC[C@H](NC(=O)CCCCCCCCCCCCCCCCC(=O)O)C(=O)O)NC(=O)CNC(=O)[C@H](Cc1ccccc1)NC(=O)[C@H](CC(N)=O)NC(=O)[C@H](CC(N)=O)NC(=O)[C@H](CO)NC(=O)[C@H](CO)NC(=O)[C@H](Cc1c[nH]cn1)NC(=O)[C@@H](NC(=O)[C@H](CC(C)C)NC(=O)[C@H](Cc1ccccc1)NC(=O)[C@H](CCC(=O)O)NC(=O)[C@H](C)NC(=O)[C@H](CC(C)C)NC(=O)[C@H](CCCNC(=N)N)NC(=O)[C@H](CCC(N)=O)NC(=O)[C@@H](NC(=O)[C@H](C)NC(=O)[C@@H]1CSSC[C@H](NC(=O)[C@@H](N)CCCCN)C(=O)N[C@@H](CC(N)=O)C(=O)N[C@@H]([C@@H](C)O)C(=O)N[C@@H](C)C(=O)N[C@@H]([C@@H](C)O)C(=O)N1)[C@@H](C)O)C(C)C)C(=O)N[C@@H](CC(C)C)C(=O)N1CCC[C@H]1C(=O)N1CCC[C@H]1C(=O)N[C@H](C(=O)N[C@@H](CC(N)=O)C(=O)N[C@H](C(=O)NCC(=O)N[C@@H](CO)C(=O)N[C@@H](CC(N)=O)C(=O)N[C@H](C(=O)N[C@@H](Cc1ccc(O)cc1)C(N)=O)[C@@H](C)O)C(C)C)[C@@H](C)O [Example 126, N-epsilon25-[2-(2-{2-[2-(2-{2-[(S)-4-Carboxy-4-(17-carboxyheptadecanoylamino)butyrylamino]ethoxy}ethoxy)acetylamino]ethoxy}ethoxy)acetyl]-[Glu14,Lys25]-pramlintide] (H-KCNTATCATQRLAEFLVHSSNNFGK([AEEA-AEEA-γGlu-C18 diacid])ILPPTNVGSNTY-NH2; disulfide 2-7 (inferred))
4 | 9 h |  |  |  | CC(C)C[C@H](NC(=O)[C@H](CCCNC(=N)N)NC(=O)[C@H](CCC(N)=O)NC(=O)[C@@H](NC(=O)[C@H](C)NC(=O)[C@@H]1CSSC[C@H](NC(=O)[C@@H](N)CCCCNC(=O)CC[C@H](NC(=O)CCCCCCCCCCCCCCCCCCC(=O)O)C(=O)O)C(=O)N[C@@H](CC(N)=O)C(=O)N[C@@H]([C@@H](C)O)C(=O)N[C@@H](C)C(=O)N[C@@H]([C@@H](C)O)C(=O)N1)[C@@H](C)O)C(=O)N[C@@H](C)C(=O)N[C@@H](CCC(=O)O)C(=O)N[C@@H](Cc1ccccc1)C(=O)N[C@@H](CC(C)C)C(=O)N[C@@H](Cc1c[nH]cn1)C(=O)N[C@@H](Cc1c[nH]cn1)C(=O)N[C@@H](CO)C(=O)N[C@@H](CO)C(=O)N[C@@H](CCC(N)=O)C(=O)N[C@@H](CC(N)=O)C(=O)N[C@@H](Cc1ccccc1)C(=O)NCC(=O)N[C@@H](C)C(=O)N1CCC[C@H]1C(=O)N[C@@H](CC(C)C)C(=O)N[C@@H](CO)C(=O)N[C@@H](CO)C(=O)N[C@H](C(=O)N[C@@H](CC(N)=O)C(=O)N[C@H](C(=O)NCC(=O)N[C@@H](CO)C(=O)N[C@@H](CC(N)=O)C(=O)N[C@H](C(=O)N1CCC[C@H]1C(N)=O)[C@@H](C)O)C(C)C)[C@@H](C)O [Example 151, N-epsilon1-[(S)-4-Carboxy-4-(19-carboxynonadecanoylamino)butyryl]-[Glu14,His17,Gln21,Ala25,Pro26,Ser28,Ser29,Pro37]-pramlintide] (H-K([γGlu-C20 diacid])CNTATCATQRLAEFLHHSSQNFGAPLSSTNVGSNTP-NH2; disulfide 2-7 (inferred))
